Reference: patent publication EP0237866A1, “Selective fungicidal use of asymmetric 2-pyridyl phosphoric acid esters” (priority 1986, dated 1987)

Key:
Cutinase = molecular target: T1, Cutinase (Fusarium vanettenii, UniProt P00590); experiment: Cutinase inhibitor test; type: biochemical, Fusarium solani f.sp.pisi; conditions: p-Nitrophenylbutyrat as substrate, 30 min incubation at 30°C, phosphate buffer 0,1 M pH 8 + 0,3% Triton X-100; read-out: I50
T1 construct: Das Enzym Cutinase wird aus Kulturfiltrat von Fusarium solani f.sp.pisi nach Standardmethoden gereinigt; endogenous in cells; host or cells: Culture filtrate of Fusarium solani f.sp. pisi (enzyme secreted by the fungus and purified)
T1 sequence (P00590 32-230): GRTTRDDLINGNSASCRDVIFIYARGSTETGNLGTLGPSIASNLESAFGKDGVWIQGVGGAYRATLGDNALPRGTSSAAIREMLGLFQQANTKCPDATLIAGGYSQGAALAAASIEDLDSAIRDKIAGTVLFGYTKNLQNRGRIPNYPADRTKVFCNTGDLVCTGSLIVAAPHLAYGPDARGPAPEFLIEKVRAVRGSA
Description: Das Enzym Cutinase wird aus Kulturfiltrat von Fusarium solani f.sp.pisi nach Standardmethoden gereinigt und photometrisch mit p-Nitrophenylbutyrat als Substrat getestet (P.E. Kolattukudy, K.E. Espelie, C.L. Soliday (1981), Meth. Enzymol. 71, 652).
Die Inhibitor-Wirkung wird einer beschriebenen Methode folgend bestimmt (W. Köller, C.R. Allan, P.E. Kolattukudy (1982), Phytopathoiopy 72, 1425): Eine geeignete Menge Enzym wird zusammen mit dem Wirkstoff in gewünschter Konzentration in 1 ml Phosphatpuffer (0,1 M; pH 8) + 0,3% (w/v) Triton X-100 bei 30°C inkubiert. Nach 30 Minuten Inkubation wird die enzymatische Restaktivität bestimmt. Anhand einer Dosis-Wirkungs-Beziehung wird der I(50)-Wert (= diejenige Wirkstoff-Konzentration, die zu einer Inhibierung von 50 % führt) ermittelt.

[1] = tested on: Erysiphe graminis f.sp.hordei; experiment: Erysiphe test (barley) / protective; type: in vivo; conditions: evaluated 7 days after inoculation
Description: Erysiphe-Test (Gerste) / protektiv
Lösungsmittel: 100 Gewichtsteile Dimethylformamid Emulgator: 0,25 Gewichtsteile Alkylarylpolyglykolether
(§1) Zur Herstellung einer zweckmäßigen Wirkstoffzubereitung vermischt man 1 Gewichtsteil Wirkstoff mit den angegebenen Mengen Lösungsmittel und Emulgator und verdünnt das Konzentrat mit Wasser auf die gewünschte Konzentration.
Zur Prüfung auf protektive Wirksamkeit besprüht man junge Pflanzen mit der Wirkstoffzubereitung taufeucht. Nach Antrocknen des Spritzbelages werden die Pflanzen mit Sporen von Erysiphe graminis f.sp.hordei bestäubt.
Die Pflanzen werden in einem Gewächshaus bei einer Temperatur von ca. 20°C und einer relativen Luftfeuchtigkeit von ca. 80 % aufgestellt, um die Entwicklung von Mehltaupusteln zu begünstigen.
7 Tage nach der Inokulation erfolgt die Auswertung.

Venturia inaequalis = experiment: Venturia test (apple) / protective; type: in vivo; conditions: apple plants, protective spray, 5 ppm active compound, evaluated 12 days after inoculation
Description: Venturia-Test (Apfel) / protektiv
Lösungsmittel: 4,7 Gewichtsteile Aceton Emulgator: 0,3 Gewichtsteile Alkylarylpolyglykolether
as §1
Zur Prüfung auf protektive Wirksamkeit bespritzt man junge Pflanzen mit der Wirkstoffzubereitung bis zur Tropfnässe. Nach Antrocknen des Spritzbelages werden die Pflanzen mit einer wäßrigen Konidiensuspension des Apfelschorferregers (Venturia inaequalis) inokuliert und verbleiben dann 1 Tag bei 20°C und 100 X relativer Luftfeuchtigkeit in einer Inkubationskabine.
Die Pflanzen werden dann im Gewächshaus bei 20 °C und einer relativen Luftfeuchtigkeit von ca. 70 % aufgestellt.
12 Tage nach der Inokulation erfolgt die Auswertung.

[2] = protective spray, 0,0025 Gew.-% in the spray liquor

Compound | Befall in % bei einer Wirkstoffkonzentration von 5 ppm (Venturia inaequalis) [%] | Krankheits-befall in % der unbe-handelten Kontrolle [1, 2] | also measured
CCOP(=O)(OCC)Oc1nc(Cl)c(Cl)cc1Cl [A, 0,0-Diethyl-0-(3,5,6-trichlor-2-pyridyl)-phosphorsäureester, reference compound] | 74 |  | IC50 (Cutinase): 190 nM; Krankheits-befall in % der unbe-handelten Kontrolle ([1]; protective spray, 0,005 Gew.-% in the spray liquor): 58,7 % der unbe-handelten Kontrolle
CCCCOP(=O)(OCC)Oc1nc(Cl)c(Cl)cc1Cl (centres unmarked) [Beispiel 1, O-n-Butyl-O-ethyl-O-(3,5,6-trichlor-2-pyridyl)-phosphorsiureester] | 27 |  | 
CCCCCCOP(=O)(OCC)Oc1nc(Cl)c(Cl)cc1Cl (centres unmarked) [Beispiel 2] | 11 |  | 
CCCCCCCCOP(=O)(OCC)Oc1nc(Cl)c(Cl)cc1Cl (centres unmarked) [Beispiel 3] | 19 |  | 
CCCCOP(=O)(OC)Oc1nc(Cl)c(Cl)cc1Cl (centres unmarked) [Beispiel 4] | 5 |  | IC50 (Cutinase): 36 nM
CCCCCCOP(=O)(OC)Oc1nc(Cl)c(Cl)cc1Cl (centres unmarked) [Beispiel 5] | 3 |  | 
CCCCCCOP(=O)(OC)Oc1cccc(Cl)n1 (centres unmarked) [Beispiel 7] |  | 37,5 % der unbe-handelten Kontrolle | 
CCCCOP(=O)(OC)Oc1cccc(Cl)n1 (centres unmarked) [Beispiel 8] |  | 37,5 % der unbe-handelten Kontrolle | 
CCCCCCOP(=O)(OC)Oc1ncc(Cl)cc1Cl (centres unmarked) [Beispiel 9] |  | 25,0 % der unbe-handelten Kontrolle | 
CCCCOP(=O)(OC)Oc1ncc(Cl)cc1Cl (centres unmarked) [Beispiel 10] |  | 12,5 % der unbe-handelten Kontrolle | 
CCCOP(=O)(OC)Oc1nc(Cl)c(Cl)cc1Cl (centres unmarked) [Beispiel 12] |  |  | IC50 (Cutinase): 39 nM
